# Test results: US8268807B2, “Compositions and method for the treatment of multiple myeloma” (SRI International, priority 2010, dated 2012)
# Read-outs that look alike come from different tables or passages of the source.
# Assays:
# [1] = tested on: RPMI-8226 multiple myeloma cells; assay: Proliferation of RPMI-8226 multiple myeloma cells; type: cell-based, human; conditions: read-out: IC50 against RPMI-8226 proliferation
# Description: Growth inhibition assay was performed to assess the effect of Compound (1) and antiestrogens on growth of RPMI-8226 (multiple myeloma) cells. Cells were seeded in 96-well plates at 2000 cells/well in 200 μL of medium. After 24 hours, test compounds were added to each well and control wells received vehicle only. On Day 3, viable cells were measured with the MTT assay, using an MTT kit.
# The effect of Compound (1) and analogs thereof on proliferation of RPMI-8226 multiple myeloma cells was determined by standard methods.
# ER-α = molecular target: T1, ER-α (Homo sapiens, UniProt P03372); assay: Estrogen receptor binding assay (3H-estradiol displacement), ER-α; conditions: recombinant estrogen receptor, 10 nM 3H-estradiol, 4° C. overnight; read-out: Binding Affinity (IC50) ER-α
# T1 sequence (P03372 1-595): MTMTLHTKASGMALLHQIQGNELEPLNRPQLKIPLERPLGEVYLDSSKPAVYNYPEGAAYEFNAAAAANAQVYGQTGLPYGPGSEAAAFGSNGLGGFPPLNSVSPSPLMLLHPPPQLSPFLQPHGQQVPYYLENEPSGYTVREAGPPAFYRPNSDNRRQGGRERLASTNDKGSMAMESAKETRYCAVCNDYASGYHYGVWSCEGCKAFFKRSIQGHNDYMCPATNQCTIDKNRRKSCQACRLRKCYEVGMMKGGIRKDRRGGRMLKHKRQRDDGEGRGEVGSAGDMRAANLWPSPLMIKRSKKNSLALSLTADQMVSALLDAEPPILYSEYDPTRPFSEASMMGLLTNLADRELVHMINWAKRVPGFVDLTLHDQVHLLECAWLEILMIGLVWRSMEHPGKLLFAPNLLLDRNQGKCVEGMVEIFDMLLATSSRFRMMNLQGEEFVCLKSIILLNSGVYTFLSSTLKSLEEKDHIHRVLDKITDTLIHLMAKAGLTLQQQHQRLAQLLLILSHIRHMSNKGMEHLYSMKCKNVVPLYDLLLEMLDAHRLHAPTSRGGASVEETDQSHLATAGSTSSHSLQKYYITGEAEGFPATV
# ER-β = ER-β (Homo sapiens, UniProt Q92731); assay: Estrogen receptor binding assay (3H-estradiol displacement), ER-β; conditions: recombinant estrogen receptor, 10 nM 3H-estradiol, 4° C. overnight; read-out: Binding Affinity (IC50) ER-β
# [2] = Activity test of salts of Compound (1) (test not specified)
# ER-β, sequence (Q92731 whole entry, species assumed): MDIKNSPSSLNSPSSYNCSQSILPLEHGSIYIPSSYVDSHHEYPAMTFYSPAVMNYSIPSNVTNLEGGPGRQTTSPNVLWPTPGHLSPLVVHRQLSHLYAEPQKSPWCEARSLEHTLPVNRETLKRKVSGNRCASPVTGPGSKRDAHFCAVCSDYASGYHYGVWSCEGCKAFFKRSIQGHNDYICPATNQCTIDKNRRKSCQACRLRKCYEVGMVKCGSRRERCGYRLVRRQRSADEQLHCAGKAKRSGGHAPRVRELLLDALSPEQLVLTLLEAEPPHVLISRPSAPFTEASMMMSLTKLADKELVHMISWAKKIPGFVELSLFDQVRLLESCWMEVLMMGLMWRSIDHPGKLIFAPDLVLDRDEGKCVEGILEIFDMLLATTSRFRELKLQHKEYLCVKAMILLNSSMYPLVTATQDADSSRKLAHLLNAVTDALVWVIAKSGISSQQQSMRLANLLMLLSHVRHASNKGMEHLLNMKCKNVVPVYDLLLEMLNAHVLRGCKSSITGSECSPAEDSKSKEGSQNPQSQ
SMILES,IC50 ([1]; Homo sapiens) [µM],also measured
C[C@@H]1Cc2cc(O)ccc2C2CC[C@]3(C)/C(=C/COCCN4CCCC4)CCC3C21 (stereo partly drawn),6.9,
C[C@@H]1Cc2cc(O)ccc2[C@H]2CC[C@]3(C)/C(=C/COCCN4CCCCC4)CC[C@H]3[C@H]12,15,
C[C@@H]1Cc2cc(O)ccc2[C@H]2CC[C@]3(C)/C(=C/COC[C@@H](C)N(C)C)CC[C@H]3[C@H]12,9.2,
C[C@@H]1Cc2cc(O)ccc2[C@H]2CC[C@]3(C)/C(=C/COCCNC4CC4)CC[C@H]3[C@H]12,10.2,
C[C@@H]1Cc2cc(O)ccc2[C@H]2CC[C@]3(C)/C(=C/COCCN(C)C)CC[C@H]3[C@H]12 [Compound (1)],0.8,IC50 (ER-α): 0.00156 ± 0.00042 µM; IC50 (ER-β): 0.0867 ± 0.0133 µM
"C[C@]12CC[C@@H]3c4ccc(O)cc4C[C@@H](CCCCCCCCC[S+]([O-])CCCC(F)(F)C(F)(F)F)[C@H]3[C@@H]1CC[C@@H]2O (stereo partly drawn) [ICI-182780, reference compound]",> 20,
"CC/C(=C(\c1ccc(O)cc1)c1ccc(OCCN(C)C)cc1)c1ccccc1 [OH-Tamoxifen, reference compound]",,IC50 [1]: > 20 µM
"O=C(c1ccc(OCCN2CCCCC2)cc1)c1c(-c2ccc(O)cc2)sc2cc(O)ccc12 [Raloxifene, reference compound]",> 20,
CN(C)CCOCC=C1CCC2C3CCc4cc(O)ccc4C3CCC12C.Cl (stereo not drawn) [chloride salt],,Activity of salt (data not provided) [2]: found to have activity
CN(C)CCOCC=C1CCC2C3CCc4cc(O)ccc4C3CCC12C.O=C(O)C=CC(=O)O (stereo not drawn) [fumerate salt],,Activity of salt (data not provided) [2]: found to have activity
